The results in this text go back to ChEMBL document CHEMBL3046553, “Bioanalytical method development and validation for simultaneous estimation of (R)- and (S)-isomers of S002-333: a potent novel anti-thrombotic agent using LCMS/MS” (Med Chem Res, 2011).

Data set [1] has as its system Plasma. The experiment in a line: Drug recovery in New Zealand Oryctolagus cuniculus (rabbit) plasma at 1.56 to 400 ng/ml. In kind it is ADME, cell-free.
Data set [2] can be described thus: Initial plasma concentration in New Zealand Oryctolagus cuniculus (rabbit) at 2 mg/kg, iv. More on the design: dose 2 mg/kg, route intravenous. Type of data set: ADME, organism-based.
Data set [3] in a line: Half life in New Zealand Oryctolagus cuniculus (rabbit) at 2 mg/kg, iv. Details: dose 2 mg/kg, route intravenous. The conditions noted are these: in vivo. Type of data set: ADME, organism-based.
Data set [4] can be described thus: Volume of distribution in New Zealand Oryctolagus cuniculus (rabbit) at 2 mg/kg, iv. In kind it is ADME, organism-based. Details: dose 2 mg/kg, route intravenous. The conditions noted are these: in vivo.
The nature of data set [5]: Clearance in New Zealand Oryctolagus cuniculus (rabbit) at 2 mg/kg, iv. The conditions noted are these: in vivo. Details: dose 2 mg/kg, route intravenous. Type of data set: ADME, organism-based.
Data set [6] is described as follows: AUC (0 to infinity) in New Zealand Oryctolagus cuniculus (rabbit) at 2 mg/kg, iv. In kind it is ADME, organism-based. More on the design: time infinity, dose 2 mg/kg, route intravenous. The settings on record: plasma.

In data set [1], `COc1ccc(S(=O)(=O)N2Cc3[nH]c4ccccc4c3C[C@@H]2C(N)=O)cc1` had a Drug recovery of 53.21%. For the same compound, in data set [2], the C0 came out at 288 ng/mL. In data set [3], this compound showed a half-life of 3.84 h. Further, the Vd in data set [4] came out at 22 L/kg. The compound also showed a clearance in data set [5] of 64.7 mL/min/kg. For the same compound, the area under the curve AUC(0-inf) in data set [6] was 568 ng·h/mL.
`COc1ccc(S(=O)(=O)N2Cc3[nH]c4ccccc4c3C[C@H]2C(N)=O)cc1` [S007-1558 (S)] gave a Drug recovery in data set [1] of 40.88%. The compound also came in with a C0 in data set [2] of 276 ng/mL. For the same compound, the half-life in data set [3] was 4.01 h. The compound further yielded a Vd in data set [4] of 29.8 L/kg. The clearance in data set [5] is 84.3 mL/min/kg. The AUC(0-inf) in data set [6] was determined as 436 ng·h/mL.

By half-life is commonly meant the time in which the quantity being followed falls by half. Broadly, the Vd is a proportionality between amount in the body and measured concentration, not a real space. Low readings indicate confinement near the circulation, high ones extensive tissue distribution. By clearance is commonly meant the rate of elimination divided by the concentration. What is called AUC(0-inf) is total exposure, with the tail of the curve extrapolated. A higher AUC(0-inf) goes with high exposure.
